Measured values as given in the CheMixHub viscosity set.
“And” between values parts separate entries of the source, which are not always exact repeats. Equal values may be shown once.

Assay: xn = mol fraction of the nth substance listed

CC(C)C[C@H](N)C(=O)O + O
Details | viscosity
293.15 K, 100 kPa, x1 = 0.000274 | 1.013 mPa·s
293.15 K, 100 kPa, x1 = 0.000645 | 1.038 mPa·s
293.15 K, 100 kPa, x1 = 0.000947 | 1.055 mPa·s
293.15 K, 100 kPa, x1 = 0.00132 | 1.076 mPa·s
293.15 K, 100 kPa, x1 = 0.00136 | 1.04 mPa·s
293.15 K, 100 kPa, x1 = 0.00153 | 1.044 mPa·s
293.15 K, 100 kPa, x1 = 0.00162 | 1.093 mPa·s
293.15 K, 100 kPa, x1 = 0.00172 | 1.048 mPa·s
293.15 K, 100 kPa, x1 = 0.002001 | 1.114 mPa·s
293.15 K, 100 kPa, x1 = 0.00234 | 1.133 mPa·s
298.15 K, 100 kPa, x1 = 0.000274 | 0.9 mPa·s
298.15 K, 100 kPa, x1 = 0.000292 | 0.8985 mPa·s
298.15 K, 100 kPa, x1 = 0.000459 | 0.905 mPa·s
298.15 K, 100 kPa, x1 = 0.000806 | 0.913 mPa·s
298.15 K, 100 kPa, x1 = 0.000995 | 0.917 mPa·s
298.15 K, 100 kPa, x1 = 0.00117 | 0.921 mPa·s
298.15 K, 100 kPa, x1 = 0.00132 | 0.9262 mPa·s
298.15 K, 100 kPa, x1 = 0.00136 | 0.925 mPa·s
298.15 K, 100 kPa, x1 = 0.00153 | 0.929 mPa·s
298.15 K, 100 kPa, x1 = 0.00162 | 0.9344 mPa·s
298.15 K, 100 kPa, x1 = 0.00172 | 0.933 mPa·s
298.15 K, 100 kPa, x1 = 0.002001 | 0.9447 mPa·s
298.15 K, 100 kPa, x1 = 0.00234 | 0.9538 mPa·s
303.15 K, 100 kPa, x1 = 0.000274 | 0.807 mPa·s
303.15 K, 100 kPa, x1 = 0.000292 | 0.8043 mPa·s
303.15 K, 100 kPa, x1 = 0.000459 | 0.811 mPa·s
303.15 K, 100 kPa, x1 = 0.000632 | 0.815 mPa·s
303.15 K, 100 kPa, x1 = 0.000645 | 0.8124 mPa·s
303.15 K, 100 kPa, x1 = 0.000806 | 0.819 mPa·s
303.15 K, 100 kPa, x1 = 0.000947 | 0.8194 mPa·s
303.15 K, 100 kPa, x1 = 0.000995 | 0.823 mPa·s
303.15 K, 100 kPa, x1 = 0.00117 | 0.826 mPa·s
303.15 K, 100 kPa, x1 = 0.00132 | 0.828 mPa·s
303.15 K, 100 kPa, x1 = 0.00136 | 0.83 mPa·s
303.15 K, 100 kPa, x1 = 0.00153 | 0.834 mPa·s
303.15 K, 100 kPa, x1 = 0.00162 | 0.8351 mPa·s
303.15 K, 100 kPa, x1 = 0.00172 | 0.838 mPa·s
303.15 K, 100 kPa, x1 = 0.002001 | 0.8439 mPa·s
303.15 K, 100 kPa, x1 = 0.00234 | 0.8517 mPa·s
303.15 K, 101 kPa, x1 = 0.0004 | 0.804 mPa·s
303.15 K, 101 kPa, x1 = 0.0007 | 0.809 mPa·s
303.15 K, 101 kPa, x1 = 0.001 | 0.817 mPa·s and 0.827 mPa·s
303.15 K, 101 kPa, x1 = 0.0018 | 0.834 mPa·s
305.15 K, 101 kPa, x1 = 0.0003598 | 0.7908 mPa·s
305.15 K, 101 kPa, x1 = 0.0007199 | 0.7974 mPa·s
305.15 K, 101 kPa, x1 = 0.00108 | 0.8054 mPa·s
305.15 K, 101 kPa, x1 = 0.001439 | 0.8126 mPa·s
305.15 K, 101 kPa, x1 = 0.001798 | 0.8203 mPa·s
305.15 K, 101 kPa, x1 = 0.002157 | 0.8283 mPa·s
308.15 K, 100 kPa, x1 = 0.000274 | 0.729 mPa·s
308.15 K, 100 kPa, x1 = 0.000292 | 0.7252 mPa·s
308.15 K, 100 kPa, x1 = 0.000632 | 0.736 mPa·s
308.15 K, 100 kPa, x1 = 0.000645 | 0.7323 mPa·s
308.15 K, 100 kPa, x1 = 0.000806 | 0.74 mPa·s
308.15 K, 100 kPa, x1 = 0.000947 | 0.7384 mPa·s
308.15 K, 100 kPa, x1 = 0.000995 | 0.744 mPa·s
308.15 K, 100 kPa, x1 = 0.00117 | 0.747 mPa·s
308.15 K, 100 kPa, x1 = 0.00132 | 0.7458 mPa·s
308.15 K, 100 kPa, x1 = 0.00153 | 0.755 mPa·s
308.15 K, 100 kPa, x1 = 0.00162 | 0.752 mPa·s
308.15 K, 100 kPa, x1 = 0.00172 | 0.758 mPa·s
308.15 K, 100 kPa, x1 = 0.002001 | 0.7597 mPa·s
308.15 K, 100 kPa, x1 = 0.00234 | 0.7665 mPa·s
308.15 K, 101 kPa, x1 = 0.0007 | 0.731 mPa·s
308.15 K, 101 kPa, x1 = 0.001 | 0.739 mPa·s and 0.746 mPa·s
308.15 K, 101 kPa, x1 = 0.0018 | 0.753 mPa·s
310.15 K, 101 kPa, x1 = 0.0003598 | 0.709 mPa·s
310.15 K, 101 kPa, x1 = 0.0007199 | 0.7151 mPa·s
310.15 K, 101 kPa, x1 = 0.00108 | 0.7218 mPa·s
310.15 K, 101 kPa, x1 = 0.001439 | 0.7272 mPa·s
310.15 K, 101 kPa, x1 = 0.001798 | 0.7334 mPa·s
310.15 K, 101 kPa, x1 = 0.002157 | 0.7401 mPa·s
313.15 K, 100 kPa, x1 = 0.000274 | 0.663 mPa·s
313.15 K, 100 kPa, x1 = 0.000292 | 0.6581 mPa·s
313.15 K, 100 kPa, x1 = 0.000459 | 0.667 mPa·s
313.15 K, 100 kPa, x1 = 0.000632 | 0.67 mPa·s
313.15 K, 100 kPa, x1 = 0.000645 | 0.6643 mPa·s
313.15 K, 100 kPa, x1 = 0.000806 | 0.674 mPa·s
313.15 K, 100 kPa, x1 = 0.000947 | 0.6696 mPa·s
313.15 K, 100 kPa, x1 = 0.00132 | 0.676 mPa·s
313.15 K, 100 kPa, x1 = 0.00162 | 0.6814 mPa·s
313.15 K, 100 kPa, x1 = 0.002001 | 0.688 mPa·s
313.15 K, 100 kPa, x1 = 0.00234 | 0.694 mPa·s
313.15 K, 101 kPa, x1 = 0.0004 | 0.658 mPa·s
313.15 K, 101 kPa, x1 = 0.0007 | 0.663 mPa·s
313.15 K, 101 kPa, x1 = 0.001 | 0.669 mPa·s and 0.677 mPa·s
313.15 K, 101 kPa, x1 = 0.0018 | 0.682 mPa·s
315.15 K, 101 kPa, x1 = 0.0003598 | 0.6544 mPa·s
315.15 K, 101 kPa, x1 = 0.0007199 | 0.6599 mPa·s
315.15 K, 101 kPa, x1 = 0.00108 | 0.6653 mPa·s
315.15 K, 101 kPa, x1 = 0.001439 | 0.6699 mPa·s
315.15 K, 101 kPa, x1 = 0.001798 | 0.6752 mPa·s
315.15 K, 101 kPa, x1 = 0.002157 | 0.6803 mPa·s
318.15 K, 101 kPa, x1 = 0.0007 | 0.605 mPa·s
318.15 K, 101 kPa, x1 = 0.001 | 0.611 mPa·s and 0.618 mPa·s
318.15 K, 101 kPa, x1 = 0.0018 | 0.622 mPa·s
